Results on 13 molecules are retold here after patent US20220340597A1, “HEXAHYDRO-1H-PYRAZINO[1,2-A]PYRAZINE COMPOUNDS FOR THE TREATMENT OF AUTOIMMUNE DISEASE” (Hoffmann-La Roche Inc., priority 2019, published 2022).

One experiment deals with T1, human TLR7 (Homo sapiens, UniProt Q9NYK1).
T1 construct: host or cells: HEK293 (HEK-Blue hTLR7)
T1 sequence (Q9NYK1 27-1049): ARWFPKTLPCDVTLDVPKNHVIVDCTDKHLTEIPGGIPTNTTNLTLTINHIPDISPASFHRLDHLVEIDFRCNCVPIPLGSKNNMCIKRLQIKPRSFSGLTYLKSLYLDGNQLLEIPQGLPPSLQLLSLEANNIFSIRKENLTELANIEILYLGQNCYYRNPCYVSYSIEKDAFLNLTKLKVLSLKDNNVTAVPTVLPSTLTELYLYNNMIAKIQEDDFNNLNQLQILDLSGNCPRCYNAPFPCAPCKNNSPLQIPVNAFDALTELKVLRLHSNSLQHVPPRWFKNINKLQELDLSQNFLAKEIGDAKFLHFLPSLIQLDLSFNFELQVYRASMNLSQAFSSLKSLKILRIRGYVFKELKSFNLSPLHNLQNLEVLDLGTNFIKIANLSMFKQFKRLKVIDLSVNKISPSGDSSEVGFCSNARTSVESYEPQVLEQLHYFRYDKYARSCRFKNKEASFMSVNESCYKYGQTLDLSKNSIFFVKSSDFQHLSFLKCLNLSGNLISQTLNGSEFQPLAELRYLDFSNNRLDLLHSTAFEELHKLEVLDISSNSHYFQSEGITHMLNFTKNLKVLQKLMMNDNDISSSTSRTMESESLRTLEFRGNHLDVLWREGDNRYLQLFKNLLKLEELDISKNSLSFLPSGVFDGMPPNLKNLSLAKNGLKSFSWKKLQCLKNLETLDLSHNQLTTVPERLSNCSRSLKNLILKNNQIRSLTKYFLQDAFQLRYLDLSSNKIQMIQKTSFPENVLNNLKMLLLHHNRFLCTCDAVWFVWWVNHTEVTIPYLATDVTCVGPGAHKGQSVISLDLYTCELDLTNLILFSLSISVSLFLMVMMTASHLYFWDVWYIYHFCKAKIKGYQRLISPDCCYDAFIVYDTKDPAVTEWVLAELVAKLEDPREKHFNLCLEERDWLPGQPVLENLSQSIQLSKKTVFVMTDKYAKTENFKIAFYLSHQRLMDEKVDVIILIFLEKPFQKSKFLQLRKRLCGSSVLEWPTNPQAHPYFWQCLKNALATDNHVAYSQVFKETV
Nature of the experiment: HEK293-Blue-hTLR-7 cells assay. The class given is cell-based. The settings on record: HEK293-Blue-hTLR7 cells, R848 stimulation, 20 hrs, SEAP reporter; read-out: HEK/hTLR7 IC50. On the procedure: The following tests were carried out in order to determine the activity of the compounds of formula (I) and (Ia) in HEK293-Blue-hTLR-7/8/9 cells assay.
HEK293-Blue-hTLR-7 cells assay:
A stable HEK293-Blue-hTLR-7 cell line was purchased from InvivoGen (Cat. #: hkb-htlr7, San Diego, Calif., USA). These cells were originally designed for studying the stimulation of human TLR7 by monitoring the activation of NF-κB. A SEAP (secreted embryonic alkaline phosphatase) reporter gene was placed under the control of the […] minimal promoter fused to five NF-κB and AP-1-binding sites. The SEAP was induced by activating NF-κB and AP-1 via stimulating HEK-Blue hTLR7 cells with TLR7 ligands. Therefore, the reporter expression was declined by TLR7 antagonist under the stimulation of a ligand, such as R848 (Resiquimod), for incubation of 20 hrs. The cell culture supernatant SEAP reporter activity was determined using QUANTI-Blue™ kit (Cat. #: rep-qb1, Invivogen, San Diego, Calif., USA) at a wavelength of 640 nm, a detection medium that turns purple or blue in the presence of alkaline phosphatase.
Then 20 μL of the supernatant from each well was incubated with […] Quanti-blue substrate solution at 37° C. for 2 hrs and the absorbance was read at 620-655 nm using a spectrophotometer. The signaling pathway that TLR7 activation leads to downstream NF-κB activation has been widely accepted, and therefore similar reporter assay was modified for evaluating TLR7 antagonist.

The next experiment addresses T2, human TLR8 (Homo sapiens, UniProt Q9NR97).
T2 sequence (Q9NR97 27-1041): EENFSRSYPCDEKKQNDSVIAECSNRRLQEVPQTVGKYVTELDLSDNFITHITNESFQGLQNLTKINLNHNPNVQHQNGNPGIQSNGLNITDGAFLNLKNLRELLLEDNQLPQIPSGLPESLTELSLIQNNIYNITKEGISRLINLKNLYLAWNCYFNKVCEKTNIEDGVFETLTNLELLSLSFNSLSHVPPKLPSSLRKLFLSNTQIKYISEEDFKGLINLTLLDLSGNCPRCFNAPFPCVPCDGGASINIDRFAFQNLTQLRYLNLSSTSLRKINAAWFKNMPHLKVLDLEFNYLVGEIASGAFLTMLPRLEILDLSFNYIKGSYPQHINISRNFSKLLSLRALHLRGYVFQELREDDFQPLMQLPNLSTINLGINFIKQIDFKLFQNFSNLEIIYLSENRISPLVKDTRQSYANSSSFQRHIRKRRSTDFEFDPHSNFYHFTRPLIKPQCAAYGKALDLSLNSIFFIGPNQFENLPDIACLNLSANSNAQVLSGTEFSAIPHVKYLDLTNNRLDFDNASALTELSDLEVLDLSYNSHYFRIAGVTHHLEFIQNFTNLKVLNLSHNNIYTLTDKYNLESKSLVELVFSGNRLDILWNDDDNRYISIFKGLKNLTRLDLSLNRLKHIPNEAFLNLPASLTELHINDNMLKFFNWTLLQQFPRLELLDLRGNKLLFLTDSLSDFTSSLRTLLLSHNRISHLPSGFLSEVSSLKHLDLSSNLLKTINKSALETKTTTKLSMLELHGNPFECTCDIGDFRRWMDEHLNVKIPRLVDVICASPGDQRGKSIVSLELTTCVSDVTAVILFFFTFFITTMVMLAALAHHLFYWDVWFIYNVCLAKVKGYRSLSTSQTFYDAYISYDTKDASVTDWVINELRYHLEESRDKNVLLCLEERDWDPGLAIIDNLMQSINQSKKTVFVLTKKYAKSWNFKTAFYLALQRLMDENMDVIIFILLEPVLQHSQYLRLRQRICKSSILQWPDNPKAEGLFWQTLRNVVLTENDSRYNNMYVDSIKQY
Nature of the experiment: HEK293-Blue-hTLR-8 cells assay.

With `C[C@H]1CN(c2ccc(C#N)c3ncccc23)C[C@@H]2CN(c3ccc([C@@H]4CNCCO4)cc3)CCN21` [Example 125, 5-[(4S,9aS)-4-methyl-8-[4-[(2R)-morpholin-2-yl]phenyl]-3,4,6,7,9,9a-hexahydro-1H-pyrazino[1,2-a]pyrazin-2-yl]quinoline-8-carbonitrile], the IC50 came out at 0.001 µM on human TLR7 and 0.007 µM on human TLR8.
For `C[C@@H]1CN(c2cccc(CCN3CCN4[C@@H](C3)CN(c3ccc(C#N)c5ncccc35)C[C@H]4C)n2)CCN1` [Example 58, 5-[(4R,9aS)-4-methyl-8-[2-[6-[(3R)-3-methylpiperazin-1-yl]-2-pyridyl]ethyl]-3,4,6,7,9,9a-hexahydro-JH-pyrazino[1,2-a]pyrazin-2-yl]quinoline-8-carbonitrile] the same measures were 0.02 µM and 0.04 µM.
With `[2H]c1ccc2c(N3C[C@@H]4CN(c5ccc([C@H]6CNCCO6)cc5)CCN4[C@@H](C)C3)ccc(C#N)c2n1` [Example 107, 5-[(4S,9aS)-4-methyl-8-[4-[(2S)-morpholin-2-yl]phenyl]-3,4,6,7,9,9a-hexahydro-1H-pyrazino[1,2-a]pyrazin-2-yl]-2-deuterio-quinoline-8-carbonitrile], the IC50 on human TLR7 worked out at 0.003 µM; against human TLR8, 0.004 µM.
For the molecule `C[C@@H]1CN(c2ccc(C#N)c3ncccc23)C[C@@H]2CN(Cc3cncc(N4CCNCC4)c3)CCN21` [Example 57, 5-[(4R,9aS)-4-methyl-8-[(5-piperazin-1-yl-3-pyridyl)methyl]-3,4,6,7,9,9a-hexahydro-1H-pyrazino[1,2-a]pyrazin-2-yl]quinoline-8-carbonitrile], the IC50 at human TLR7 is 0.023 µM; on human TLR8 it was 0.022 µM.
For `C[C@@H]1CN(c2ccc(C#N)c3ncccc23)C[C@@H]2CN(CCc3ccc(N4CC5(CNCCO5)C4)cc3)CCN21` [Example 28, 5-[(4R,9aS)-4-methyl-8-[2-[4-(5-oxa-2,8-diazaspiro[3.5]nonan-2-yl)phenyl]ethyl]-3,4,6,7,9,9a-hexahydro-1H-pyrazino[1,2-a]pyrazin-2-yl]quinoline-8-carbonitrile] the same measures were 0.012 µM and 0.029 µM.
For `[2H]c1ccc2c(N3C[C@@H]4CN(Cc5ccc(N6CC(C)(N)C6)nc5C)CCN4[C@H](C)C3)ccc(C#N)c2n1` [Example 79, 5-[(4R,9aS)-8-[[6-(3-amino-3-methyl-azetidin-1-yl)-2-methyl-3-pyridyl]methyl]-4-methyl-3,4,6,7,9,9a-hexahydro-1H-pyrazino[1,2-a]pyrazin-2-yl]-2-deuterio-quinoline-8-carbonitrile] the same measures were 0.019 µM and 0.006 µM.
As to `CO[C@@H]1CN(c2ccc(CCN3CCN4[C@@H](C3)CN(c3ccc(C#N)c5ncccc35)C[C@H]4C)cc2)C[C@H]1N` [Example 26, 5-[(4R,9aS)-8-[2-[4-[(3R,4R)-3-amino-4-methoxy-pyrrolidin-1-yl]phenyl]ethyl]-4-methyl-3,4,6,7,9,9a-hexahydro-1H-pyrazino[1,2-a]pyrazin-2-yl]quinoline-8-carbonitrile], the IC50 at human TLR7 was found to be 0.018 µM; against human TLR8, 0.008 µM.
With `C[C@@H]1CN(c2ccc(C#N)c3ncccc23)C[C@@H]2CN(Cc3cccc(N4CCNCC4)n3)CCN21` [Example 27, 5-[(4R,9aS)-4-methyl-8-[(6-piperazin-1-yl-2-pyridyl)methyl]-3,4,6,7,9,9a-hexahydro-1H-pyrazino[1,2-a]pyrazin-2-yl]quinoline-8-carbonitrile], the IC50 came to 0.021 µM on human TLR7 and 0.013 µM against human TLR8.
For `C[C@@H]1CN(c2ccc(C#N)c3ncccc23)C[C@@H]2CN(c3ccnc(N4CCOC[C@H](N)C4)c3)CCN21` [Example 54, 5-[(4R,9aS)-8-[2-[(6R)-6-amino-1,4-oxazepan-4-yl]-4-pyridyl]-4-methyl-3,4,6,7,9,9a-hexahydro-1H-pyrazino[1,2-a]pyrazin-2-yl]quinoline-8-carbonitrile] the same measures were 0.023 µM and 0.026 µM.
For `C[C@@H]1CN(c2ccc(C#N)c3ncccc23)C[C@@H]2CN(CCc3ccc(N4C[C@@H](N)[C@@H](F)C4)cn3)CCN21` [Example 19, 5-[(4R,9aS)-8-[2-[5-[(3R,4S)-3-amino-4-fluoro-pyrrolidin-1-yl]-2-pyridyl]ethyl]-4-methyl-3,4,6,7,9,9a-hexahydro-1H-pyrazino[1,2-a]pyrazin-2-yl]quinoline-8-carbonitrile], the IC50 came out at 0.01 µM on human TLR7 and 0.031 µM at human TLR8.
For `C[C@@H]1CN(c2ccc(C#N)n3ncc(F)c23)C[C@@H]2CN(CCc3ccc(N4C[C@@H](N)[C@@H](F)C4)nc3)CCN21` [Example 75, 4-[(4R,9aS)-8-[2-[6-[(3R,4S)-3-amino-4-fluoro-pyrrolidin-1-yl]-3-pyridyl]ethyl]-4-methyl-3,4,6,7,9,9a-hexahydro-1H-pyrazino[1,2-a]pyrazin-2-yl]-3-fluoro-pyrazolo[1,5-a]pyridine-7-carbonitrile] the same measures were 0.034 µM and 0.084 µM.
Consider `C[C@@H]1CN(c2ccc(C#N)c3ncccc23)C[C@@H]2CN(c3ccnc(N4CCOC[C@@H](N)C4)c3)CCN21` [Example 53, 5-[(4R,9aS)-8-[2-[(6S)-6-amino-1,4-oxazepan-4-yl]-4-pyridyl]-4-methyl-3,4,6,7,9,9a-hexahydro-1H-pyrazino[1,2-a]pyrazin-2-yl]quinoline-8-carbonitrile], for which the IC50 at human TLR7 was found to be 0.013 µM; against human TLR8 it was 0.02 µM.
For `[2H]c1ccc2c(N3C[C@@H]4CN(c5ncc(N6C[C@H]7NCCO[C@@H]7C6)cc5C)CCN4[C@@H](C)C3)ccc(C#N)c2n1` [Example 114, 5-[(4S,9aR)-8-[5-[(4aR,7aR)-3,4,4a,5,7,7a-hexahydro-2H-pyrrolo[3,4-b][1,4]oxazin-6-yl]-3-methyl-2-pyridyl]-4-methyl-3,4,6,7,9,9a-hexahydro-1H-pyrazino[1,2-a]pyrazin-2-yl]-2-deuterio-quinoline-8-carbonitrile], the IC50 worked out at 0.002 µM at human TLR7 and 0.01 µM against human TLR8.
